Results as given in PMC6530925 (Nature metabolism, 2019).

Molecular target: T1, Slc12a8 (Mus musculus, UniProt Q8VI23)
T1 sequence (Q8VI23 1-705): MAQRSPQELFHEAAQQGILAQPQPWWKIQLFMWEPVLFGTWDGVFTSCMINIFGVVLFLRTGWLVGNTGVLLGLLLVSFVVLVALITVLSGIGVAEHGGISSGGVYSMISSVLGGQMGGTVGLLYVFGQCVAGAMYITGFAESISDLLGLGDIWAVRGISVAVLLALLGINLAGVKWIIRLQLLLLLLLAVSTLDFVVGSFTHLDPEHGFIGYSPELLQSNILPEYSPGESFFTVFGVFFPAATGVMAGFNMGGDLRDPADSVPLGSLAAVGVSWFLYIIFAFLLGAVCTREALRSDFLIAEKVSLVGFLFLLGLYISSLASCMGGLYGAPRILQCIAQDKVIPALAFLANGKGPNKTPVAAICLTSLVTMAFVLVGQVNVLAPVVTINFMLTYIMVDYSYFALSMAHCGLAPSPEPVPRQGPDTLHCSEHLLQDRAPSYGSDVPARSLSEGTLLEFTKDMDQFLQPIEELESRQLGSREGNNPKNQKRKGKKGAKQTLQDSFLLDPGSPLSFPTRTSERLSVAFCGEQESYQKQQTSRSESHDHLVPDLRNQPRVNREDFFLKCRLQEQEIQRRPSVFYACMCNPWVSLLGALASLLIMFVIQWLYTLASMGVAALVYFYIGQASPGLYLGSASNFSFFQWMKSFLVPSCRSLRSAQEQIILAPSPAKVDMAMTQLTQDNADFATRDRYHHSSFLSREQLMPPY
Test: 3H-NMN uptake into Slc12a8-OE proteoliposomes with cold NMN competition
Assay type: biochemical

- IC50: 22.8 ± 3.6 µM
SMILES: NC(=O)c1ccc[n+]([C@@H]2O[C@H](COP(=O)([O-])O)[C@@H](O)[C@H]2O)c1 [NMN, Nicotinamide mononucleotide]
